Columns and labels:
Assay in all cases: Human Liver Microsomal CYP Inhibition Test
[1] = target: Cytochrome P450 2D6 (Homo sapiens, UniProt P10635)
Description: (§1) 3.5.1 the working solution preparation of the compound to be tested and the positive control (100×);3.5.2 Taking the liver microsomes from the −80° C. cryogenic freezer and melting on ice;3.5.3 Adding 20 μL of substrate solution to the appropriate wells and 20 μL of potassium phosphate buffer to the blank wells;3.5.4 Adding 2 μL of different concentrations of target compounds (final concentrations from 0.05 μM to 50 μM, 7 concentrations in total) or standard inhibitors to each well, with 2 μL of methanol solution in the non-inhibitor and blank wells;3.5.5 Adding 1.012 mL of liver microsomes to 78.988 mL of potassium phosphate buffer, then adding 158 μL of liver microsomes solution to all wells; preheating the well plate for 10 minutes in a 37° C. water bath;3.5.6 Weighing 129.1 mg NADPH (purchased from SyncoZymes Co. Ltd.) and adding to 15.0 mL of 33 Mm MgCl2 solution to give a 10 mM concentration, adding 20 μL to each well;3.5.7 Mixing and incubating the well plate in a 37° C. water bath for 10 minutes, then adding 400 μL of cold termination solution at the appropriate time point;3.5.8 Centrifuging the sample at 4000 rpm for 20 minutes to precipitate the protein. Transferring 200 μL of supernatant to 100 μL of HPLC water and shaking for 10 minutes. The samples were analyzed by LC/MS/MS.

[2] = target: Cytochrome P450 2C19 (Homo sapiens, UniProt P33261)
Sequence of Cytochrome P450 2C19 (P33261 whole entry): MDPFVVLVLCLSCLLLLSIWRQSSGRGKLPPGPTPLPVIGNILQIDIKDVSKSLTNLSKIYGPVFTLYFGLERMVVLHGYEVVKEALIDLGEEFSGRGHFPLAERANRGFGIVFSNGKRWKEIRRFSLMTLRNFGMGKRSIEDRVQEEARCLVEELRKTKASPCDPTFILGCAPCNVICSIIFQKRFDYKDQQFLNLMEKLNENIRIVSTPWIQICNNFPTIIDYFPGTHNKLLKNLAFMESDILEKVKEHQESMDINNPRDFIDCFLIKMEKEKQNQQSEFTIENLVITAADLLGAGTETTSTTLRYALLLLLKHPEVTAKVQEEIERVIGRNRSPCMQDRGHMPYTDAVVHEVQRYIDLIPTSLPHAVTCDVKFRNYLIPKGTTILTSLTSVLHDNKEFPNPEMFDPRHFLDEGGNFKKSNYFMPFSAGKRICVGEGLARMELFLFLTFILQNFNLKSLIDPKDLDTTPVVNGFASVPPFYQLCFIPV
Description: as §1

[3] = target: Cytochrome P450 2C9 (Homo sapiens, UniProt P11712)
Sequence of Cytochrome P450 2C9 (P11712 whole entry): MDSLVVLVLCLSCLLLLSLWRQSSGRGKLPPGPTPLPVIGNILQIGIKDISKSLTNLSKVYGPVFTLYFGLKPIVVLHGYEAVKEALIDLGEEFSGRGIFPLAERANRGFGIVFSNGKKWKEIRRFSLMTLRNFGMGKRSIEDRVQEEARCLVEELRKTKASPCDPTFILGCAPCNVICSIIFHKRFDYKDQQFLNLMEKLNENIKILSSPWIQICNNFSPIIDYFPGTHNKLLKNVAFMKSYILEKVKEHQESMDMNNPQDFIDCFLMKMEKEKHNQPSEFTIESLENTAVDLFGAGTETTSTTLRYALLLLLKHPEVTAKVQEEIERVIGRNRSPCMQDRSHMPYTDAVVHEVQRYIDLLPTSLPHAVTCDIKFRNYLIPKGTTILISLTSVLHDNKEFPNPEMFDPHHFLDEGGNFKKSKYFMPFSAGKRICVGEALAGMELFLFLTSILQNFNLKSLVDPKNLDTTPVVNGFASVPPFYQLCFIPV
Description: as §1

[4] = target: T1, Cytochrome P450 1A2 (Homo sapiens, UniProt P05177)
T1 sequence (P05177 whole entry): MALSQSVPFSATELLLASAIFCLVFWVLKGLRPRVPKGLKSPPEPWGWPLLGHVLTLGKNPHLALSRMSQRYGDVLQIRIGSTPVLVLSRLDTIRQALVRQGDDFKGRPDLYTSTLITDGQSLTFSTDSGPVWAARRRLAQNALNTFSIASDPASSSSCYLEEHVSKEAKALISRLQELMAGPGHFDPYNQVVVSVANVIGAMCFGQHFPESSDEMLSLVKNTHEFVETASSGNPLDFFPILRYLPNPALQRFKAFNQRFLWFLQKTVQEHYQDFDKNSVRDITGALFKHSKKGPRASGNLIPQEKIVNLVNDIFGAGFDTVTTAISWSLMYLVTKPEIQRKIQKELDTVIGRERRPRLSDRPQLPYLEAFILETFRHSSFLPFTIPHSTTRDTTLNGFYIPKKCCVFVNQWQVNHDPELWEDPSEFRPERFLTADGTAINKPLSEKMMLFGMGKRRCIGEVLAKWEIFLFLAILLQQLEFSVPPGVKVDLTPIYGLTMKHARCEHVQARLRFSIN
Description: as §1

Sequence of Cytochrome P450 2D6 (P10635 whole entry): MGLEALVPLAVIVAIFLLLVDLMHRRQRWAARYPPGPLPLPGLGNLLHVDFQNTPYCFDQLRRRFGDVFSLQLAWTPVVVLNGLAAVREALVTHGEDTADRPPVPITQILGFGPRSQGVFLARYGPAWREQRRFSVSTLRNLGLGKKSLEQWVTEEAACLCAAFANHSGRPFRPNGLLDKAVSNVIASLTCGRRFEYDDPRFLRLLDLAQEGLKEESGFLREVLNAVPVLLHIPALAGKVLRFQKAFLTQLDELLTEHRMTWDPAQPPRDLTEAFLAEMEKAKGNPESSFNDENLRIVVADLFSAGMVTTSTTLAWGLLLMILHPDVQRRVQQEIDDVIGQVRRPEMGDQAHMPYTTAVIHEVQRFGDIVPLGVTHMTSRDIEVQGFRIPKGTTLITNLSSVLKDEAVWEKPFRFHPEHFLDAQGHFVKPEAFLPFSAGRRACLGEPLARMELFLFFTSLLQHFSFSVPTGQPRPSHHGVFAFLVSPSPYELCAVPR

IC50 [1]: > 50 µM
IC50 [2]: 2.13 µM
IC50 [3]: > 50 µM
IC50 [4]: > 50 µM
Structure (SMILES): COc1c([C@H]2[C@H](C(=O)Nc3ccc[n+]([O-])c3)C[C@@](C)(C(F)(F)F)[C@H]2C)ccc(F)c1F [US20250296922, Compound 7]

— BindingDB's records for patent US20250296922 (Shanghai Wennai Therapeutics Co, 2025)
